The values below come from article PMC3572853 (ACS medicinal chemistry letters, 2012).

Molecules are shown by their SMILES.

Series [1] deals with PADs 1–4. As to the kind of experiment: kinact/KI determination with purified enzyme, all PADs tested. The class given is biochemical. The settings on record: for kinact/KI: for all of the PADs tested (PADs 1–4).
The nature of series [2]: maximum tolerable dose. The format is in vivo. The settings on record: mice, per os.
For series [3], the system named is MDA-MB-231 cells. Put plainly: cell viability and cell number in MDA-MB-231 cells. The format is cell-based. The settings on record: MDA-MB-231 cells, 100, 200 and 400 µM, 96 h after administration.
Series [4] has as its system Ki-67. Put plainly: Ki-67 levels in MDA-MB-231 cells.
Series [5] deals with caspase 3 activity. As to the kind of experiment: caspase 3 activity in MDA-MB-231 cells. The settings on record: MDA-MB-231 cells, 100, 200 and 400 µM, 96 h.
For series [6], the target named is T1, PAD1 (Homo sapiens, UniProt Q9ULC6).
T1 sequence (Q9ULC6 1-663): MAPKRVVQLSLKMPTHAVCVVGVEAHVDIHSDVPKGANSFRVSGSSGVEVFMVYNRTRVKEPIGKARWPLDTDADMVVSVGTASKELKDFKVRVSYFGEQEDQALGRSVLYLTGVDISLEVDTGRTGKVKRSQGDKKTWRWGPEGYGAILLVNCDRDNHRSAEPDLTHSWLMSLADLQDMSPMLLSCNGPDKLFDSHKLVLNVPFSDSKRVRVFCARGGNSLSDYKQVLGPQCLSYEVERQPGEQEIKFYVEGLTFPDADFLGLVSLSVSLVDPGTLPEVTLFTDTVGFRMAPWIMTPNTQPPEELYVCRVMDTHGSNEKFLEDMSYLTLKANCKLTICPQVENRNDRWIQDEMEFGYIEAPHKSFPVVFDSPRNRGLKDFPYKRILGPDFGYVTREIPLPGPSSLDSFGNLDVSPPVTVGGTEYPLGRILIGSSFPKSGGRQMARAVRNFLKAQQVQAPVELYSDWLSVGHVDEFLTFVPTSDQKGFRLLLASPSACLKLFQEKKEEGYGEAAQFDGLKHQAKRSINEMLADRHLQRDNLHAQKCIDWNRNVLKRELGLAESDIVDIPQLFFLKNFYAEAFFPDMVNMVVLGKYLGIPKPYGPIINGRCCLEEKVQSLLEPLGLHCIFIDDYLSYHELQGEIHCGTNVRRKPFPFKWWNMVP
As to the kind of experiment: kinact/KI determination with purified enzyme, PAD1. The class given is biochemical.

Series [7] is described as follows: pharmacokinetics in mice, IV and IP injection. The format is in vivo. The settings on record: 10 mg/kg.
The subject of series [8] is collagen induced arthritis (CIA) model. The settings on record: cited from earlier work.
Series [9] relates to mouse model of ulcerative colitis. The settings on record: cited from earlier work.
For series [10] the following is noted: mice, 100 mg/kg daily by i.p. for up to 56 days; cited from earlier work.

`N=C(CCl)NCC[C@@H](NC(=O)c1ccccc1)C(N)=O` [D-Cl2-amidine]: in series [1], the kinact/KI was < 2.5 M⁻¹ s⁻¹.

For `N=C(CCl)NCCCC[C@@H](NC(=O)c1ccccc1)C(N)=O` [D-Cl4-amidine], the kinact/KI in [1] is < 2.5 M⁻¹ s⁻¹.

In the case of `N=C(CCl)NCCC[C@@H](NC(=O)c1ccccc1)C(=O)NCC(=O)O` [D-Cl-amidine-Gly], in series [1], the kinact/KI is < 3.83 M⁻¹ s⁻¹.

`N=C(CCl)NCCC[C@@H](NC(=O)c1ccccc1)C(=O)O` [D-Cl-amidine-OH]: the kinact/KI in [1] was < 3.83 M⁻¹ s⁻¹.

`N=C(CCl)NCCC[C@@H](NC(=O)c1ccccc1)C(N)=O` [D-Cl-amidine]: the body weight change entry in [2] (varying doses up to 150 mg/kg) is “maintained healthy weight gains”. For the same molecule, in [3], the cell number entry is recorded as “significantly decreased cell number at a concentration of 400 µM”; the cell viability entry was “significantly decreasing cell viability at concentrations of 200 and 400 µM”. In addition, the Ki-67 levels entry in series [4] is “no significant effect on Ki-67 levels”. In addition, the “caspase 3 activity” value in series [5] is recorded as “significant increase in activity at a concentration of 400 µM”.

Regarding `N=C(CF)NCCC[C@@H](NC(=O)c1ccccc1)C(N)=O` [D-F-amidine], the kinact/KI in series [6] was 20.3 M⁻¹ s⁻¹.

For the molecule `N=C(CF)NCCC[C@@H](NC(=O)c1ccccc1C(=O)O)C(N)=O` [D-o-F-amidine], the body weight change result in [2] (varying doses up to 150 mg/kg) is “maintained healthy weight gains”. Also, in series [3], the cell number entry is listed as “only a small decrease in cell number at a concentration of 400 µM” and the cell viability result was “no effect on cell viability”. In addition, the “caspase 3 activity” value in series [5] is “did not result in an increase in caspase 3 activity”.

In the case of `N=C(CCl)NCCC[C@H](NC(=O)c1ccccc1)C(N)=O` [L-Cl-amidine, N-α-Benzoyl-N5-(2-Chloro-1-Iminoethyl)-l-Ornithine Amide], the body weight change entry was “significant weight loss” in series [2] (100 mg/kg (group 5), 4 days (96 h)) and “significant weight loss” in [2] (150 mg/kg (group 6), 4 days (96 h)). The observable toxicity entry in series [2] (group 6 (150 mg/kg)) was “notably shaking, anxious, hunching and breathing heavily from 1 to 4 h after treatment”. For the same molecule, the cell number entry in series [3] is “significantly decreased cell number at a concentration of 400 µM”. The cell viability result in series [3] is “significantly decreasing cell viability at concentrations of 200 and 400 µM”. In addition, the “time to complete degradation” value was ≤ 4 h in series [7] (IP) and ≤ 2 h in [7] (IV). Moreover, the disease severity entry in series [8] and in series [9] was “reduces disease severity” in each case. Besides, in series [10], the signs of toxicity entry was “no observable signs of toxicity”. Further, the Ki-67 levels entry in series [4] was “no significant effect on Ki-67 levels”. Also, the “caspase 3 activity” value in series [5] is “significant increase in activity at a concentration of 400 µM”.

For `N=C(CCl)NCCCC(NC(=O)c1ccccc1)C(=O)O` [L-Cl-amidine-OH], in series [1] (PADs 1–4), the “PAD inhibition in words” value is recorded as “poor PAD inhibitor”.

For the molecule `CC(=O)N[C@H]1[C@@H](O[C@@H]2O[C@H](CC(O)[C@H]3O[C@@H](n4ccc(=O)[nH]c4=O)[C@H](O)[C@@H]3O)[C@H](O)[C@H](O)[C@H]2NC(=O)/C=C/CC(C)C)O[C@H](CO)[C@@H](N)[C@@H]1O` (stereo partly shown) [tunicamycin], in [4], the Ki-67 levels result is “a decrease in Ki-67 levels”.
